The values that follow come from ChEMBL document CHEMBL1201862, “PubChem BioAssay data set” (2004).

Among the test systems are SN12C; HCC 2998; HOP-62; SF-295; A549; U-251; COLO 205; SK-MEL-5; M14; HCT-15; EKVX; ACHN; A498; MCF7; UACC-62; OVCAR-4; OVCAR-5; SK-MEL-2; NCI-H522; NCI-H23.
Common to all, as to assay: DTP human tumour cell line panel, 48 h

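96-well plates; 48 h exposure; 5 concentrations. Endpoints by linear interpolation between flanking doses. Not reached: highest tested concentration assigned. GI50: concentration for 50% inhibition of growth.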 Active and inactive are the calls of the source. Cut-off read from the data, not from the text of the source: active = GI50 up to about 1.1 µM and inactive = higher.

By GI50 is commonly meant the concentration that inhibits growth by half. Regarding `CCN(CC)c1ccc2c(c1)Oc1ccc(N(C(C)=O)c3ccccc3)cc1C21OC(=O)c2ccccc21` (stereo not drawn), the GI50 in the test on SN12C was > 100 µM (inactive); in the test with HCC 2998, > 100 µM (inactive); in the test on HOP-62, > 100 µM (inactive); with SF-295 it was 41.8 µM (inactive); in the test on A549 it was 37.8 µM (inactive); with U-251, > 77.3 µM (inactive). Further, the GI50 was > 64.1 µM (inactive) with COLO 205; 24.2 µM (inactive) with SK-MEL-5; 40.6 µM (inactive) in the test on M14; 92.7 µM with HCT-15; 84.7 µM (inactive) in the test on EKVX; > 100 µM (inactive) in the test on ACHN. Moreover, the GI50 in the test with A498 was > 100 µM (inactive); with MCF7, 40.3 µM (inactive); in the test with UACC-62, > 91.8 µM (inactive); in the test with OVCAR-4, > 82.8 µM (inactive); in the test on OVCAR-5, > 100 µM (inactive); with SK-MEL-2, > 100 µM (inactive). Besides, the results for the GI50 in the test on NCI-H522 and in the test on NCI-H23 were 62.7 µM (inactive) and > 68.4 µM (inactive), respectively.

`COc1cc(N/N=C/C#N)cc(OC)c1OC`: the GI50 in the test with SN12C, with HCC 2998, in the test on HOP-62, with SF-295, in the test with A549 and in the test with U-251 was > 10 µM (inactive) in each case. The GI50 is 4.86 µM (inactive) in the test with COLO 205; > 10 µM (inactive) with SK-MEL-5; > 10 µM (inactive) in the test on M14; over 10 µM in the test with HCT-15; > 10 µM (inactive) in the test on EKVX; 4.86 µM (inactive) in the test on ACHN. In addition, the GI50 with A498 is > 10 µM (inactive); in the test with MCF7 it was 5.87 µM (inactive); in the test with UACC-62, > 10 µM (inactive); in the test on OVCAR-4 it was > 10 µM (inactive); in the test on OVCAR-5, > 10 µM (inactive); in the test on SK-MEL-2, > 10 µM (inactive). Further, the GI50 with NCI-H522 was 1.01 µM (active); in the test on NCI-H23 it was 4.34 µM (inactive).

On to `CC(C)NC(=O)OCc1c(COC(=O)NC(C)C)c(-c2cc[n+](COC(=O)Cc3ccccc3)cc2)n2c1CCC2`, for which the GI50 in the test on SN12C was > 100 µM (inactive); in the test with HCC 2998 it was > 100 µM (inactive); in the test with HOP-62, 72.9 µM (inactive); in the test on SF-295, 92 µM (inactive); in the test with A549 it was > 100 µM (inactive); with U-251, > 100 µM (inactive). The GI50 in the test with COLO 205 is > 100 µM (inactive); in the test on SK-MEL-5, > 100 µM (inactive); with M14, > 100 µM (inactive); in the test with HCT-15, over 100 µM; with EKVX, > 100 µM (inactive); with ACHN, 40.5 µM (inactive). Besides, the GI50 in the test on A498 is > 100 µM (inactive); in the test with MCF7, 67.5 µM (inactive); in the test on UACC-62 it was 56.2 µM (inactive); in the test with OVCAR-4, > 100 µM (inactive); in the test on OVCAR-5, > 100 µM (inactive); with SK-MEL-2, > 100 µM (inactive). Besides, the GI50 is > 100 µM (inactive) in the test on NCI-H522 and 56.6 µM (inactive) in the test with NCI-H23.

As to `Cc1ccc2c3c4c(ccc13)C(C)(C)OC4=C(C(C)C)C2=O`, the GI50 with SN12C was > 100 µM (inactive); in the test on HCC 2998 it was 39.8 µM (inactive); in the test with HOP-62 it was 15.6 µM (inactive); with SF-295 it was 88.3 µM (inactive); in the test with A549, 55.5 µM (inactive); in the test with U-251, 79.8 µM (inactive). The GI50 with COLO 205 was 31.3 µM (inactive); in the test with SK-MEL-5 it was 32.2 µM (inactive); with M14, 45.1 µM (inactive); in the test on HCT-15, 32.5 µM; with EKVX, 63.5 µM (inactive); in the test with ACHN it was 84.5 µM (inactive). Moreover, the GI50 in the test with A498 was > 100 µM (inactive); in the test on MCF7, 44.7 µM (inactive); with UACC-62, 50.9 µM (inactive); with OVCAR-4, 65.5 µM (inactive); with OVCAR-5 it was > 100 µM (inactive); in the test with SK-MEL-2, 17 µM (inactive). Besides, the GI50 in the test with NCI-H522 is 26.8 µM (inactive); in the test with NCI-H23 it was 70.5 µM (inactive).

In the case of `CN(C)CCCNc1ccc2nnn3c4ccc(O)cc4c(=O)c1c23`, the GI50 with SN12C was 2.95 µM (inactive); with HCC 2998, 1.89 µM (inactive); in the test on HOP-62 it was 3.27 µM (inactive); in the test on SF-295 it was 4.37 µM (inactive); with A549, 0.358 µM (active); with U-251 it was 2.73 µM (inactive). Also, the GI50 is 2.51 µM (inactive) in the test with COLO 205; 5.73 µM (inactive) with SK-MEL-5; 7.89 µM (inactive) in the test with M14; 2.85 µM with HCT-15; 9.98 µM (inactive) with EKVX; 1.26 µM (inactive) in the test with ACHN. The GI50 in the test with A498 is 6.92 µM (inactive); in the test with MCF7 it was 5.7 µM (inactive); in the test with UACC-62, 11 µM (inactive); in the test on OVCAR-4, 4.54 µM (inactive); in the test with OVCAR-5, 9.98 µM (inactive); in the test with SK-MEL-2, 12.7 µM (inactive). In addition, the values for the GI50 with NCI-H522 and in the test on NCI-H23 were 3.7 µM (inactive) and 3.56 µM (inactive), respectively.

As for `CCCCCCCNC(P(=O)(O)O)P(=O)(O)O`, the GI50 in the test on SN12C is > 100 µM (inactive); with HCC 2998, 56.2 µM (inactive); with HOP-62 it was > 100 µM (inactive); with SF-295 it was > 100 µM (inactive); in the test with A549, > 100 µM (inactive); with U-251 it was > 100 µM (inactive). Also, the GI50 in the test on COLO 205 was > 100 µM (inactive); in the test on SK-MEL-5, 97.3 µM (inactive); in the test with M14 it was > 100 µM (inactive); in the test with HCT-15 it was over 100 µM; with EKVX, > 100 µM (inactive); in the test with ACHN, > 100 µM (inactive). Besides, the GI50 with A498, in the test on MCF7, in the test with UACC-62, in the test on OVCAR-4, in the test on OVCAR-5 and in the test on SK-MEL-2 was > 100 µM (inactive) each time. Besides, the GI50 in the test with NCI-H522 and in the test with NCI-H23 was > 100 µM (inactive) throughout.

Regarding `O=c1cc(N2CCCC2)[nH]c(=O)n1-c1cccc(C(F)(F)F)c1`, the GI50 in the test on SN12C, in the test on HCC 2998, in the test with HOP-62, with SF-295, in the test on U-251 and in the test on COLO 205 was > 100 µM (inactive) each time. For the same molecule, the GI50 in the test with M14 was > 100 µM (inactive); in the test with HCT-15 it was over 100 µM; with EKVX, > 100 µM (inactive); in the test on ACHN it was > 100 µM (inactive); in the test on A498, > 100 µM (inactive); in the test on MCF7, > 100 µM (inactive). For the same molecule, the GI50 in the test on UACC-62, in the test on OVCAR-4, in the test with OVCAR-5, in the test on SK-MEL-2, in the test on NCI-H522 and with NCI-H23 was > 100 µM (inactive) each time.

For the molecule `COC(O)C(=O)c1ccc2c(c1)CC1(C2)Cc2cc3c(cc2C1=O)CCC3` (stereo not drawn), the GI50 with SN12C was 15.3 µM (inactive); with HCC 2998, 19.1 µM (inactive); in the test on HOP-62, 19.5 µM (inactive); with SF-295, 23.7 µM (inactive); in the test on A549 it was 20.2 µM (inactive); in the test on U-251 it was 18.4 µM (inactive). Further, the GI50 in the test with COLO 205 was 20 µM (inactive); with SK-MEL-5, 16 µM (inactive); with M14, 19.3 µM (inactive); in the test on HCT-15, 22.2 µM; with EKVX, 19.2 µM (inactive); with ACHN, 17 µM (inactive). The GI50 with A498 is 18.7 µM (inactive); in the test with MCF7, 17.3 µM (inactive); in the test on UACC-62 it was 17.9 µM (inactive); with OVCAR-4, 16.1 µM (inactive); in the test with OVCAR-5 it was 22 µM (inactive); with SK-MEL-2, 23.2 µM (inactive). Also, the values for the GI50 in the test with NCI-H522 and in the test on NCI-H23 were 19 µM (inactive) and 24.5 µM (inactive), respectively.

As for `COC(=O)c1ccc2c(c1)CCN2C(=O)c1cc2c(cc1Br)OCO2`, the GI50 in the test on SN12C was 1.81 µM (inactive); in the test on HCC 2998 it was 0.989 µM (active); in the test with HOP-62 it was 3.87 µM (inactive); in the test on SF-295 it was 0.565 µM (active); in the test on A549, 1.74 µM (inactive); in the test with U-251 it was 0.822 µM (active). The GI50 with COLO 205 was 0.406 µM (active); in the test with SK-MEL-5, 0.167 µM (active); with M14 it was 0.276 µM (active); in the test with HCT-15, 1.82 µM; with EKVX, 4.66 µM (inactive); in the test on ACHN, 5.19 µM (inactive). Further, the GI50 with A498 is 1.05 µM (active); in the test with MCF7, 0.251 µM (active); in the test on UACC-62, 0.439 µM (active); with OVCAR-4, 1.54 µM (inactive); in the test on OVCAR-5 it was > 50 µM (inactive); with SK-MEL-2 it was 0.723 µM (active). Also, the GI50 was 0.119 µM (active) with NCI-H522 and 1.44 µM (inactive) in the test with NCI-H23.

For the molecule `CC1CNC(NS(=O)(=O)c2cc(C(=O)Nc3ccc(F)cc3)c(Cl)cc2S)=NN1` (stereo not drawn), the GI50 in the test on SN12C is > 100 µM (inactive); in the test with HCC 2998, 40.5 µM (inactive); with HOP-62, 75.7 µM (inactive); in the test with SF-295, 66.5 µM (inactive); in the test on A549, 49.4 µM (inactive); in the test with U-251, 48.4 µM (inactive). Moreover, the GI50 in the test with COLO 205 was 62.4 µM (inactive); in the test with SK-MEL-5 it was 26.2 µM (inactive); in the test on M14, 42.3 µM (inactive); with HCT-15 it was 37.8 µM; with EKVX it was > 100 µM (inactive); in the test on ACHN, 77.4 µM (inactive). Moreover, the GI50 is 17.2 µM (inactive) with A498; 41 µM (inactive) with MCF7; 57.3 µM (inactive) in the test with UACC-62; > 100 µM (inactive) in the test on OVCAR-4; 59.7 µM (inactive) in the test on OVCAR-5; 28.3 µM (inactive) with SK-MEL-2. Besides, the results for the GI50 with NCI-H522 and in the test with NCI-H23 were 33.3 µM (inactive) and 50.4 µM (inactive), respectively.
